Assay results from patent US20250375453A1, “HIGH-EFFICIENCY ANTIMICROBIAL COMPOSITION” (CM4CURE S.A., priority 2023, published 2025).

How the values were obtained:
[1] = system: Vancomycin-resistant Enterococcus faecalis (VRE, ATCC BAA-2573); experiment: Synergy checkerboard assay / broth micro-dilution MIC (ISO 20776-1 with modifications); format: cell-based
Protocol: • 1. Preparation of the inoculum of Vancomycin-resistant Enterococcus faecalis (VRE, ATCC BAA-2573). Inoculum is prepared by suspension of 1 colony of bacteria (medium size colony from Tryptic Soy agar plate) in 3 ml of Tryptic Soy broth (TSB) using a 200 μL tip. The solution is mixed by vortexing and incubated at 37° C. overnight (19-24 hours) under shaking at 200 rpm. • 2. Preparation of the Antimicrobial dilution on the day of the experiment. Stock solutions are performed with distilled water for all antimicrobial compound except for Fluometacyl (ethanol). Dilution for each condition is made in Mueller-Hinton broth (NMB). 50p of APIs dilution is added to wells of a 96 wells microplate (each condition in duplicate-triplicate). • Antimicrobial compounds were prepared as follows: • Fluometacyl (F) (4 mg/mL in 100% EtOH) served as a master stock. To obtain the final concentration of 40 μg/ml in the bacterial suspension, initial stock of 160 μg/ml in Mueller-Hinton broth (MHB) was prepared and further 2-fold diluted using the following serial dilution scheme: • (1): 40 μg/ml (160 μg/ml, prepared in MHB) • (2): 20 μg/ml (80 μg/ml, dilution in MHB) • (3): 10 μg/ml (40 μg/ml, dilution in MHB) • (4): 5 μg/ml (20 μg/ml, dilution in MHB) • (5): 2.5 μg/ml (10 μg/ml, dilution in MHB) • (6): 1.25 μg/ml (5 μg/ml, dilution in MHB) • Chlorhexidine acetate (CHLX) (2 mg/mL in H2O) served as a master stock. To obtain the final concentration of 4 μg/ml in the bacterial suspension, initial stock of 16 μg/ml in MHB was prepared and further 2-fold diluted using the following serial dilution scheme: • (1): 8 μg/ml (32 μg/ml, prepared in MHB) • (2): 4 μg/ml (16 μg/ml, prepared in MHB) • (3): 2 μg/ml (8 μg/ml, dilution in MHB) • (4): 1 μg/ml (4 μg/ml, dilution in MHB) • (5): 0.5 μg/ml (2 μg/ml, dilution in MHB) • (6): 0.25 μg/ml (1 μg/ml, dilution in MHB) • 3. Preparation of VRE. Before the experiment, the VRE bacterial suspension (incubated overnight) is diluted 100× in TSB in 4 mL of TSB and grown at 37 C under agitation 200 rpm until OD600 reaches 0.08 to 0.16. This corresponds to the cell density […]. 100 μl of the bacterial solution (OD600 ranging from 0.08 to 0.16) is added to 9 900 μL of Mueller-Hinton Broth (MHB) (dilution 1:100). • 4. Preparation of a 96-well plate. 100 μL of bacteria (diluted 1:100 in MHB from the point 3) is added in each well of the plate containing 100 μL of the serially diluted APIs alone or in combinations as shown in the p. 2. Bacteria should be added into the 96-well plate within the 30 minutes following the preparation of the bacteria in order to maintain the same number of CFU/mL. Plates are incubated at 37° C. overnight. A condition with MHB medium alone or bacteria without APIs will also be added as the control conditions. Since fluometacyl is dissolved in ethanol, extra conditions are added: MHB with ethanol in order to assess the effect of ethanol on bacterial growth. • Following scheme is applied: • 2 antibacterial compounds: 50 μL of a antimicrobial 1+50 μL of a antimicrobial 2+100 μL of bacterial suspension in MHB • 1 antibacterial compound: 50 μL of a drug 1/2+50 μL of MHB+100 μL of bacterial suspension in MHB • Growth control: 100 μL MHB (+/−Ethanol)+100 μL of bacterial suspension • BLANK: MHB only • 5. CFU counting of the initial challenge inoculum. 10 μL of the solution of the bacteria used as the positive control is diluted in 10 mL of TSB. 100 μL is spread on Tryptic Soy agar (done in triplicate) and incubated at 37° C. overnight • 6. Results. The MIC is the lowest concentration that inhibits completely the visible growth of the bacteria (no turbidity in a well). The OD at 600 nm is also recorded for each well as back-up data.
Synergy evaluation resulting from the comparison between activity of the combination of the antimicrobial compounds and their individual activities was represented as the Fractional Inhibitory Concentration (FIC) index value. […]

[2] = chlorhexidine base; cited from earlier work
[3] = system: Lactobacillus acidophilus; details: cited from earlier work
Klebsiella spp. = details: cited from earlier work
Streptococcus mutans = details: cited from earlier work

For `[H]/N=C(\N/C(=N/[H])NCCCCCCNC(=N)NC(=N)Nc1ccc(Cl)cc1)Nc1ccc(Cl)cc1` [Chlorhexidine, chlorhexidine], the MIC ([1]; Enterococcus faecalis, antimicrobial alone, read-out: MIC Monotherapy (X)) was 4000 µg/mL, the “Ratio Y/X” value ([1]; MIC combination / MIC monotherapy) was 0.125-0.5 and the “MIC combination dual therapy (Y)” value ([1]; in FLC + CHX combination) was 500 to 2000 µg/mL. The solubility in water [2] was “insoluble in water”, the MIC of chlorhexdine [3] was 0.5 to 2 µg/mL and the MIC of chlorhexdine (Klebsiella spp.) was 8 to 16 µg/mL. For the same molecule, the MIC of chlorhexdine (Streptococcus mutans) was 0.9 to 4 µg/mL.
